Laboratory results as given in paper PMC7878787 (Scientific Reports, 2021).
Like-named read-outs stand apart in the source and are kept apart here.

Legend:
PC-3 cells = experiment: Cellular processing (membrane-bound vs internalized activity); format: cell-based, human; conditions: 2 nM, continuous incubation 24 h, 37 °C, n = 3
Experimental: At pre-determined time points (1 h, 2 h, 4 h, 24 h) cells were incubated with 0.2 M glycine buffer (with 0.15 M NaCl, 4 M Urea, pH 2) for 5 min on ice to collect the membrane-bound activity. Thereafter, cells were incubated at 37 °C for 30 min with 1 M NaOH and collected. Activity content in those samples was considered internalized activity.

[1] = Biodistribution in mice bearing PC-3 xenografts; format: in vivo, Balb/c nu/nu mice; conditions: female, Balb/c nu/nu, mouse, iv, total radioactivity, 3 h pi, 40–50 pmol iv, female Balb/c nu/nu mice with PC-3 xenografts, average ± SD, n = 3–4
Experimental: (§1) Mice were sacrificed 3 h and 22 h pi by intraperitoneal injection of a lethal dose of Ketalar-Rompun solution (10 mg/mL Ketaminol (Intervet) and 1 mg/mL Rompun (Bayer); 20 μL solution/gram of body weight). Tumors were collected as well as samples of blood, lung, liver, spleen, pancreas, stomach, small intestine, kidneys, muscle, and bone. Gastrointestinal (GI) tract and carcass were also collected. Samples were weighed, and measured for activity content in the automated gamma counter. Corrections for background, spill-over and decay were performed for all measurements.
(§2) Biodistribution of [^68Ga]Ga-NOTA-PEG2-RM26 3 h pi was included for comparison. Mice were therefore injected with 40–50 pmol (250 kBq) ^68Ga-NOTA-PEG2-RM26, euthanized 3 h pi and samples were collected according to the protocol described above.

GRPR = target: T1, GRPR (Mus musculus, UniProt P21729); experiment: In vivo specificity test (co-injection of non-labeled peptide); set-up: species or system Balb/c nu/nu mice; conditions: 3 h pi, co-injection of 10 nmol non-labeled NOTA-PEG2-RM26, p < 0.002
T1 construct: Mice with GRPR-expressing PC-3 xenografts (implanted 21 d before the experiment) were used for all in vivo studies; from tissue; host or cells: PC-3 xenograft tumors in female Balb/c nu/nu mice
T1 sequence (P21729 whole entry): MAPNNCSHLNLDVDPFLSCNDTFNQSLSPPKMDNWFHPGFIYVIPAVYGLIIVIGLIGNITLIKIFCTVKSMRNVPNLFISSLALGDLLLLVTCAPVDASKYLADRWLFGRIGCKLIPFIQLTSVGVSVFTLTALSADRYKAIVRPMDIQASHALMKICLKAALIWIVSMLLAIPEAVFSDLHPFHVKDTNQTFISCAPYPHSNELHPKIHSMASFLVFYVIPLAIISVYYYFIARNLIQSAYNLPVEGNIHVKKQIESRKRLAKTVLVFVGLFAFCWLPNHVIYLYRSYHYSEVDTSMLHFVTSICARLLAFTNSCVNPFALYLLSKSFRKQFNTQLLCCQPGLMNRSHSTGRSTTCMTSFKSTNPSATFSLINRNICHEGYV
Experimental: For the in vivo specificity test, mice in the blocking group were co-injected with 10 nmol of non-labeled NOTA-PEG2-RM26 and sacrificed 3 h pi and samples were collected according to the protocol described above.

PC-3 xenografts = experiment: Biodistribution in mice bearing PC-3 xenografts; format: in vivo, Balb/c nu/nu mice
Experimental: as §1, §2

[2] = Analysis of blood metabolites (radio-HPLC of plasma); format: in vivo; conditions: 5 min pi, NMRI mice; for radiometal associated with intact peptide in blood plasma: 1.5 nmol (6.75–7.3 MBq)
Experimental: NMRI Mice were injected with 1.5 nmol (6.75–7.3 MBq) [^68Ga]Ga-NOTA-PEG2-RM26 and sacrificed 5 min pi by cervical dislocation. Immediately after blood was collected by heart puncture into a pre-chilled heparinized Eppendorf tube. Blood samples were centrifuged (10000RCF, 10 min at 4 °C), plasma was collected and mixed with equal amount of ice cold acetonitrile. The mixture was centrifuged (15,000 RCF, 10 min, 4 °C), the supernatant was collected and sterile filtered with a 0.2 µm PTFE syringe filter. The filtrate was analyzed on HPLC according to the method described above.

In the case of `CC(C)C[C@H](NC(=O)C[C@H](O)[C@H](CC(C)C)NC(=O)[C@H](Cc1c[nH]cn1)NC(=O)CNC(=O)[C@@H](NC(=O)[C@H](C)NC(=O)[C@H](Cc1c[nH]c2ccccc12)NC(=O)[C@H](CCC(N)=O)NC(=O)[C@@H](Cc1ccccc1)NC(=O)COCCOCCNC(=O)CN1CCN(CC(=O)O)CCN(CC(=O)O)CC1)C(C)C)C(N)=O` [[^66Ga]Ga-NOTA-PEG2-RM26, metal not drawn], the “fraction of internalized activity, of cell-associated activity” value (PC-3 cells) is reported as 17%, the tissue uptake at 3 h ([1]; bone, read-out: Uptake, Bone) is reported as 0.5 ± 0.3 %ID/g and the tissue uptake at 3 h ([1]; kidney, read-out: Uptake, Kidney) is reported as 1.7 ± 0.4 %ID/g. For the same compound, the tissue uptake at 3 h ([1]; liver, read-out: Uptake, Liver) was 0.28 ± 0.06 %ID/g, the tissue uptake at 3 h ([1]; lung, read-out: Uptake, Lung) was 0.5 ± 0.4 %ID/g and the tissue uptake at 3 h ([1]; pancreas, read-out: Uptake, Pancreas) was 3.4 ± 0.7 %ID/g. It also gave a tissue uptake at 3 h ([1]; stomach, read-out: Uptake, Stomach) of 1.9 ± 0.4 %ID/g, a tissue uptake at 3 h ([1]; tumor (PC-3 xenograft), read-out: Uptake, Tumor) of 14 ± 1 %ID/g and a tissue uptake at 3 h ([1]; whole blood, read-out: Uptake, Blood) of 0.15 ± 0.06 %ID/g. The “uptake in pancreas, blocked vs non-blocked” value (GRPR) was “significant decrease”.
In the case of `CC(C)C[C@H](NC(=O)C[C@H](O)[C@H](CC(C)C)NC(=O)[C@H](Cc1c[nH]cn1)NC(=O)CNC(=O)[C@@H](NC(=O)[C@H](C)NC(=O)[C@H](Cc1c[nH]c2ccccc12)NC(=O)[C@H](CCC(N)=O)NC(=O)[C@@H](Cc1ccccc1)NC(=O)COCCOCCNC(=O)CN1CCN(CC(=O)O)CCN(CC(=O)O)CC1)C(C)C)C(N)=O` [[^66Ga]Ga-NOTA-PEG2-RM26] [metal not drawn], the “change of uptake in bone during the observation period” value (PC-3 xenografts; 3 to 22 h pi) is reported as “increased”, the “activity retained in tumors from 3 to 22 h pi” value (PC-3 xenografts; PC-3 xenografts) is reported as “approximately 50%” and the “change of uptake in GRPR-expressing pancreas from 3 to 22 h pi” value (PC-3 xenografts; p < 0.004) is reported as “decreased significantly”.
In the case of `CC(C)C[C@H](NC(=O)C[C@H](O)[C@H](CC(C)C)NC(=O)[C@H](Cc1c[nH]cn1)NC(=O)CNC(=O)[C@@H](NC(=O)[C@H](C)NC(=O)[C@H](Cc1c[nH]c2ccccc12)NC(=O)[C@H](CCC(N)=O)NC(=O)[C@@H](Cc1ccccc1)NC(=O)COCCOCCNC(=O)CN1CCN(CC(=O)O)CCN(CC(=O)O)CC1)C(C)C)C(N)=O` [[^68Ga]Ga-NOTA-PEG2-RM26, metal not drawn], the “free gallium, share of activity in blood plasma” value [2] is reported as 6%, the “radiometal associated with intact peptide in blood plasma” value [2] is reported as “up to 57%” and the “radiometal associated with intact peptide in blood plasma” value ([2]; listed as gallium labeled NOTA-PEG2-RM26) is reported as “up to 60%”.
